Literature values in US20240164375A1, “LIQUID DISINFECTANT COMPOSITION AND USE THEREOF” (HYPRED, priority 2002, published 2024).

Details: 25° C.

- pKa: 4.85
SMILES: CCCCCCCC(=O)O [octanoic acid]
